Assay: Stability study for amorphous trisodium sacubitril valsartan complex (HPLC purity and PXRD on storage)
Format: physicochemical
From the text: In another embodiment, the present invention provides a method of packing amorphous form of sacubitril valsartan trisodium complex, comprising: placing amorphous form of sacubitril valsartan trisodium complex in LDPE bag under nitrogen atmosphere; placing the product containing Low-density polyethylene (LDPE) bag in a second LDPE bag under nitrogen atmosphere; keeping the silica gel packet between two LDPE bags and sealing; placing the second sealed bag in a triple laminated bag and sealing.
The X-Ray powder diffraction can be measured using PANalytical X'per^3pro X-ray powder Diffractometer equipped with a Cu-anode ([λ]=1.54 Angstrom), X-ray source operated at 45 kV, 40 mA. Two-theta calibration is performed using an NIST SRM 640c Si standard. The sample was analyzed using the following instrument parameters: measuring range=3-45° 20; step size=0.01°; and Time per step=23 sec.
In another embodiment, the present invention provides Sacubitril sodium and amorphous form of sacubitril-valsartan trisodium complex obtained by the above process, as analyzed using high performance liquid chromatography (“HPLC”) with the conditions are tabulated below:
The amorphous form of trisodium sacubitril valsartan complex is packed in LDPE bag under nitrogen atmosphere and placed in another LDPE bag, filled with nitrogen and kept silica gel packet between the bags, tied with strip seal. Kept the bag in triple laminated sunlight barrier bag and sealed with heat sealer. The stability of the samples was tested at 25±2° C./60±5% RH and 40±2° C./75±5% RH respectively.

[1] = 25 ± 2° C./60 ± 5% RH, 1st month
[2] = 25 ± 2° C./60 ± 5% RH, 3rd month
[3] = 25 ± 2° C./60 ± 5% RH, 6th month
[4] = 40 ± 2° C./75 ± 5% RH, 1st month
[5] = 40 ± 2° C./75 ± 5% RH, 3rd month
[6] = 40 ± 2° C./75 ± 5% RH, 6th month

- HPLC purity (%) [1]: 99.95%
- PXRD [1]: Amorphous
- HPLC purity (%) [2]: 99.94%
- PXRD [2]: Amorphous
- HPLC purity (%) [3]: 99.93%
- PXRD [3]: Amorphous
- HPLC purity (%) (25 ± 2° C./60 ± 5% RH, Initial): 99.94%
- PXRD (25 ± 2° C./60 ± 5% RH, Initial): Amorphous
- HPLC purity (%) [4]: 99.95%
- PXRD [4]: Amorphous
- HPLC purity (%) [5]: 99.93%
- PXRD [5]: Amorphous
- HPLC purity (%) [6]: 99.90%
- PXRD [6]: Amorphous
- HPLC purity (%) (40 ± 2° C./75 ± 5% RH, Initial): 99.94%
- PXRD (40 ± 2° C./75 ± 5% RH, Initial): Amorphous
- solid form on storage (packed in LDPE/triple laminated bags, up to 6 months at real and accelerated conditions, up to about 40° C., about 25% to about 75% RH): the amorphous character was retained
- stability at real time and accelerated conditions (stored at 25±2° C./60±5% RH for 6 months and at 40±2° C./75±5% RH for 6 months): stable
Substance: sacubitril valsartan trisodium complex

From patent publication US11318116B2, “Stable amorphous form of sacubitril valsartan trisodium complex and processes for preparation thereof” (Laurus Labs Limited, priority 2016, dated 2022)
